We go through six cell lines from the supplement of paper PMC10307832.

Experiment in all cases: relative viability (nuclei count vs DMSO), 5 days (fraction); higher = more cells survive
Compound in assay [1]: CS(=O)(=O)c1ccc(-c2cnc(N)c(C(=O)Nc3ccccc3)n2)cc1 [VE-821] + C[C@@H](Oc1cc(-c2cnn(C3CCNCC3)c2)cnc1N)c1c(Cl)ccc(F)c1Cl [Crizotinib] (partner 1 µM)
The gist of the method: (§1)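 Each reported value is a median over duplicate plates. It expresses relative viability: treated-well nuclei count divided by vehicle-well nuclei count. Lung cancer cell lines in 1536-well plates were dosed by pin tool a day after seeding, alone with one drug or with a fixed anchor-drug dose plus five library-drug doses (not always all listed) in √10 steps, and nuclei were counted after 5 days.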

Compound in assay [2]: CS(=O)(=O)c1ccc(C(=O)Nc2ccc(Cl)c(-c3ccccn3)c2)c(Cl)c1 [Vismodegib] + CS(=O)(=O)CCNCc1ccc(-c2ccc3ncnc(Nc4ccc(OCc5cccc(F)c5)c(Cl)c4)c3c2)o1 [Lapatinib] (partner 2 µM)
The gist of the method:
as §1

Compound in assay [3]: N#CC[C@H](C1CCCC1)n1cc(-c2ncnc3[nH]ccc23)cn1 [Ruxolitinib] + C[C@]1(O)C[C@@H](c2nc(-c3ccc4ccc(-c5ccccc5)nc4c3)c3c(N)nccn32)C1 [Linsitinib] (partner 1 µM)
In a few lines: as §1

Compound in assay [4]: N#CC[C@H](C1CCCC1)n1cc(-c2ncnc3[nH]ccc23)cn1 [Ruxolitinib] + Cc1cc(Nc2cc(N3CCN(C)CC3)nc(Sc3ccc(NC(=O)C4CC4)cc3)n2)n[nH]1 [Tozasertib] (partner 0.1 µM)
The gist of the method: as §1

Consider PC-3 [JPC-3], for which the relative viability worked out at 1.06 in assay [1] (first compound 0.08 µM); 0.968 in assay [1] (first compound 0.253 µM); 1.1 in assay [1] (first compound 0.8 µM); 0.98 in assay [1] (first compound 2.53 µM); 0.963 in assay [1] (first compound 8 µM); 0.486 in assay [2] (first compound 0.08 µM). For the same cell line, the relative viability in assay [2] (first compound 0.253 µM) was found to be 0.467; in assay [2] (first compound 0.8 µM) it was 0.394; in assay [2] (first compound 2.53 µM), 0.447; in assay [2] (first compound 8 µM), 0.475; in assay [3] (first compound 0.08 µM), 0.882; in assay [3] (first compound 0.253 µM), 0.973. In addition, the relative viability was found to be 0.973 in assay [3] (first compound 0.8 µM); 0.963 in assay [3] (first compound 2.53 µM); 0.872 in assay [3] (first compound 8 µM); 0.77 in assay [4] (first compound 0.08 µM); 0.894 in assay [4] (first compound 0.253 µM); 0.862 in assay [4] (first compound 0.8 µM). Moreover, the relative viability in assay [4] (first compound 2.53 µM) was 0.824; in assay [4] (first compound 8 µM), 0.859.
Take PC-14: the relative viability was 1.06 in assay [1] (first compound 0.08 µM); 0.846 in assay [1] (first compound 0.253 µM); 0.856 in assay [1] (first compound 0.8 µM); 0.916 in assay [1] (first compound 2.53 µM); 0.877 in assay [1] (first compound 8 µM); 0.273 in assay [2] (first compound 0.08 µM). Further, the relative viability turned out to be 0.338 in assay [2] (first compound 0.253 µM); 0.29 in assay [2] (first compound 0.8 µM); 0.337 in assay [2] (first compound 2.53 µM); 0.337 in assay [2] (first compound 8 µM); 0.959 in assay [3] (first compound 0.253 µM); 1.04 in assay [3] (first compound 0.8 µM). For the same cell line, the relative viability in assay [3] (first compound 2.53 µM) turned out to be 0.794; in assay [3] (first compound 8 µM), 0.69; in assay [4] (first compound 0.253 µM) it was 0.677; in assay [4] (first compound 0.8 µM), 0.58; in assay [4] (first compound 2.53 µM), 0.471; in assay [4] (first compound 8 µM), 0.483.
Regarding RERF-LC-KJ, the relative viability in assay [1] (first compound 0.08 µM) is 0.839; in assay [1] (first compound 0.253 µM) it was 0.806; in assay [1] (first compound 0.8 µM) it was 0.775; in assay [1] (first compound 2.53 µM) it was 0.701; in assay [1] (first compound 8 µM), 0.693; in assay [2] (first compound 0.08 µM) it was 0.902. The relative viability in assay [2] (first compound 0.253 µM) is 0.848; in assay [2] (first compound 0.8 µM) it was 0.762; in assay [2] (first compound 2.53 µM), 0.817; in assay [2] (first compound 8 µM), 0.826; in assay [3] (first compound 0.08 µM), 0.883; in assay [3] (first compound 0.253 µM), 0.812. Also, the relative viability in assay [3] (first compound 0.8 µM) turned out to be 0.877; in assay [3] (first compound 2.53 µM), 0.904; in assay [3] (first compound 8 µM), 0.634; in assay [4] (first compound 0.08 µM), 0.401; in assay [4] (first compound 0.253 µM), 0.492; in assay [4] (first compound 0.8 µM), 0.555. For the same cell line, the relative viability came out at 0.495 in assay [4] (first compound 2.53 µM) and 0.384 in assay [4] (first compound 8 µM).
As for SK-LU-1, the relative viability in assay [1] (first compound 0.08 µM) turned out to be 0.788; in assay [1] (first compound 0.253 µM), 0.863; in assay [1] (first compound 0.8 µM), 0.884; in assay [1] (first compound 2.53 µM), 0.591; in assay [1] (first compound 8 µM), 0.387; in assay [2] (first compound 0.08 µM), 0.769. Besides, the relative viability was determined as 0.887 in assay [2] (first compound 0.253 µM); 0.991 in assay [2] (first compound 0.8 µM); 0.776 in assay [2] (first compound 2.53 µM); 0.884 in assay [2] (first compound 8 µM); 1.16 in assay [3] (first compound 0.08 µM); 1.19 in assay [3] (first compound 0.253 µM). Besides, the relative viability in assay [3] (first compound 0.8 µM) was found to be 1.27; in assay [3] (first compound 2.53 µM), 0.974; in assay [3] (first compound 8 µM) it was 0.945; in assay [4] (first compound 0.08 µM), 0.363; in assay [4] (first compound 0.253 µM), 0.328; in assay [4] (first compound 0.8 µM) it was 0.412. Besides, the relative viability was determined as 0.372 in assay [4] (first compound 2.53 µM) and 0.338 in assay [4] (first compound 8 µM).
With SK-MES-1, the relative viability in assay [1] (first compound 0.08 µM) stood at 1.07; in assay [1] (first compound 0.253 µM) it was 0.93; in assay [1] (first compound 0.8 µM), 0.924; in assay [1] (first compound 2.53 µM), 0.95; in assay [1] (first compound 8 µM) it was 0.896; in assay [2] (first compound 0.08 µM), 0.498. Also, the relative viability was 0.475 in assay [2] (first compound 0.253 µM); 0.404 in assay [2] (first compound 0.8 µM); 0.484 in assay [2] (first compound 2.53 µM); 0.499 in assay [2] (first compound 8 µM); 1.15 in assay [3] (first compound 0.08 µM); 1.02 in assay [3] (first compound 0.253 µM). Moreover, the relative viability in assay [3] (first compound 0.8 µM) turned out to be 1.04; in assay [3] (first compound 2.53 µM), 0.866; in assay [3] (first compound 8 µM), 0.622; in assay [4] (first compound 0.08 µM), 1.01; in assay [4] (first compound 0.253 µM), 0.873; in assay [4] (first compound 0.8 µM), 0.906. In addition, the relative viability in assay [4] (first compound 2.53 µM) is 0.768; in assay [4] (first compound 8 µM) it was 0.735.
SW 1573: the relative viability was determined as 0.944 in assay [1] (first compound 0.08 µM); 0.675 in assay [1] (first compound 0.253 µM); 0.636 in assay [1] (first compound 0.8 µM); 0.963 in assay [1] (first compound 2.53 µM); 0.855 in assay [1] (first compound 8 µM); 0.974 in assay [2] (first compound 0.08 µM). Besides, the relative viability turned out to be 1.08 in assay [2] (first compound 0.253 µM); 1.14 in assay [2] (first compound 0.8 µM); 0.959 in assay [2] (first compound 2.53 µM); 1.18 in assay [2] (first compound 8 µM); 0.948 in assay [3] (first compound 0.08 µM); 0.669 in assay [3] (first compound 0.253 µM). Further, the relative viability in assay [3] (first compound 0.8 µM) worked out at 0.848; in assay [3] (first compound 2.53 µM), 0.707; in assay [3] (first compound 8 µM), 0.534; in assay [4] (first compound 0.08 µM), 0.209; in assay [4] (first compound 0.253 µM), 0.182; in assay [4] (first compound 0.8 µM) it was 0.167. Moreover, the figures for the relative viability in assay [4] (first compound 2.53 µM) and in assay [4] (first compound 8 µM) were 0.183 and 0.16, respectively.
